Assay results from patent US9023852B2, “1, 2, 4-thiadiazol-5-ylpiperazine derivatives useful in the treatment of neurodegenerative diseases” (Remynd NV, priority 2011, dated 2015).

System: M17—3TAU(P301L) cells
Test: Neuroblastoma tauopathy model: inhibition of TAU-induced cytotoxicity (LDH)
Assay type: cell-based
Conditions: Homo sapiens, 168 h; inhibition of TAU-induced toxicity (LDH), 7 days differentiation with retinoic acid
Outline: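 BE-M17 neuroblastoma cells stably expressing human TAU-P301L, differentiated with RA (2.5 μM in added medium) for 7 days at 37 °C with compounds at a range of concentrations. Cytotoxicity as supernatant LDH over total LDH (Cytotox 96); EC50 from dose-dependent inhibition curve.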

| Structure (SMILES) | EC50 |
| --- | --- |
| COc1cccc(C(=O)CN2CCN(c3nc(-c4ccc(Cl)cc4)ns3)CC2)c1 [Example 60, 2-{4-[3-(4-Chloro-phenyl)-[1,2,4]thiadiazol-5-yl]-piperazin-1-yl}-1-(3-methoxy-phenyl)-ethanone] | 41.2 nM |
| Fc1ccc(CCN2CCN(c3nc(-c4cc(Cl)ccn4)ns3)CC2)cc1 [Example 122, 1-[3-(4-Chloro-pyridin-2-yl)-[1,2,4]thiadiazol-5-yl]-4-[2-(4-fluoro-phenyl)-ethyl]-piperazine] | 42.5 nM |
| COc1cccc(C(O)CN2CCN(c3nc(-c4ccc(Cl)cc4)ns3)CC2)c1 (stereo not shown) [Example 61, 2-{4-[3-(4-Chloro-phenyl)-[1,2,4]thiadiazol-5-yl]-piperazin-1-yl}-1-(3-methoxy-phenyl)-ethanol] | 44.4 nM |
| N#Cc1cccc(-c2nsc(N3CCN(CCc4ccc(F)c(F)c4)CC3)n2)c1 [Example 137, 3-(5-{4-[2-(3,4-Difluoro-phenyl)-ethyl]-piperazin-1-yl}-[1,2,4]thiadiazol-3-yl)-benzonitrile] | 6.2 nM |
| COc1ccccc1CCCN1CCN(c2nc(-c3ccc(Cl)cc3)ns2)CC1 [Example 39, 1-[3-(4-Chloro-phenyl)-[1,2,4]thiadiazol-5-yl]-4-[3-(2-methoxy-phenyl)-propyl]-piperazine] | 43.5 nM |
| Fc1ccccc1CCN1CCN(c2nc(-c3ccc(Cl)cc3)ns2)CC1 [Example 28, 1-[3-(4-Chloro-phenyl)-[1,2,4]thiadiazol-5-yl]-4-[2-(2-fluoro-phenyl)-ethyl]-piperazine] | 45.2 nM |
| COc1ccc(C(C)CN2CCN(c3nc(-c4ccc(Cl)cc4)ns3)CC2)cc1 (stereo not shown) [Example 72, 1-[3-(4-Chloro-phenyl)-[1,2,4]thiadiazol-5-yl]-4-[2-(4-methoxy-phenyl)-propyl]-piperazine] | 94.3 nM |
| COc1ccc(CCN2CCN(c3nc(-c4cc(Cl)cc(Cl)c4)ns3)CC2)cc1 [Example 46, 1-[3-(3,5-Dichloro-phenyl)-[1,2,4]thiadiazol-5-yl]-4-[2-(4-methoxy-phenyl)-ethyl]-piperazine] | 31.2 nM |
| Cc1ccccc1CN1CCN(c2nc(-c3cc(Cl)ccn3)ns2)CC1 [Example 128, 1-[3-(4-Chloro-pyridin-2-yl)-[1,2,4]thiadiazol-5-yl]-4-(2-methyl-benzyl)-piperazine] | 110 nM |
| COc1ccc(CCN2CCN(c3nc(-c4ccc(OC(F)(F)F)cc4)ns3)CC2)cc1 [Example 37, 1-[2-(4-Methoxy-phenyl)-ethyl]-4-[3-(4-trifluoromethoxy-phenyl)-[1,2,4]thiadiazol-5-yl]-piperazine] | 2.9 nM |
| FC(F)(F)c1cccc(CCN2CCN(c3nc(-c4ccc(Cl)cc4)ns3)CC2)c1 [Example 140, 1-[3-(4-Chloro-phenyl)-[1,2,4]thiadiazol-5-yl]-4-[2-(3-trifluoromethyl-phenyl)-ethyl]-piperazine] | 72.6 nM |
| FC(F)Oc1cccc(CCN2CCN(c3nc(-c4ccc(Cl)cc4)ns3)CC2)c1 [Example 69, 1-[3-(4-Chloro-phenyl)-[1,2,4]thiadiazol-5-yl]-4-[2-(3-difluoromethoxy-phenyl)-ethyl]-piperazine] | 43.7 nM |
| COc1cc(CCN2CCN(c3nc(-c4cncc(Cl)c4)ns3)CC2)ccn1 [Example 133, 1-[3-(5-Chloro-pyridin-3-yl)-[1,2,4]thiadiazol-5-yl]-4-[2-(2-methoxy-pyridin-4-yl)-ethyl]-piperazine] | 1.4 nM |
| Cc1ccccc1CN1CCN(c2nc(-c3ccc(C#N)cc3)ns2)CC1 [Example 118, 4-{5-[4-(2-Methyl-benzyl)-piperazin-1-yl]-[1,2,4]thiadiazol-3-yl}-benzonitrile] | 181 nM |
| COc1ccccc1CCN1CCN(c2nc(-c3ccc(Cl)cc3)ns2)CC1 [Example 27, 1-[3-(4-Chloro-phenyl)-[1,2,4]thiadiazol-5-yl]-4-[2-(2-methoxy-phenyl)-ethyl]-piperazine] | 16.7 nM |
| COc1cccc(CCN2CCN(c3nc(-c4ccc(F)cc4)ns3)CC2)c1 [Example 34, 1-[3-(4-Fluoro-phenyl)-[1,2,4]thiadiazol-5-yl]-4-[2-(3-methoxy-phenyl)-ethyl]-piperazine] | 1.4 nM |
